Results from US9006205B2, “Antisense oligonucleotides against neutral sphingomyelinase and neutral sphingomyelinase inhibitor GW4869 for degenerative neurological disorders” (Rush University Medical Center, priority 2011, dated 2015).

What was measured:
Format in all cases: cell-based
primary human astroglia = test: NO synthesis (nitrite, Griess reagent) in primary human astroglia; conditions: astroglia pretreated 40 h with oligonucleotide; nitrite after 24 h of stimulation
Method in brief: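 Primary human astroglia pretreated 40 h with antisense or scrambled oligonucleotides against N-SMase and A-SMase, then stimulated with fibrillar Aβ plus IL-1β under serum-free conditions. Nitrite was measured in supernatants by Griess reagent after 24 h of stimulation.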

primary human neurons = test: LDH release from neurons in astrocyte-neuron trans-well; conditions: neurons pretreated with oligonucleotide; 18 h of stimulation
Procedure: Primary human astrocytes were grown to confluency on inserts. After 24 h of stimulation by the combination of Aβ (1 μM) and IL-Iβ (10 ng/ml), inserts were washed thrice with HBSS and then placed onto the wells containing primary human neurons. Therefore, in this trans-well model, although neurons and astrocytes face each other, they are separable and the effect of soluble factors released from activated astrocytes on neurons can be studied allowing analysis of neuronal and glial populations separately.
The activity of lactate dehydrogenase (LDH) was measured using the direct spectrophotometric assay using an assay kit from Sigma.
Primary human neurons were incubated with antisense (ASO) and scrambled oligonucleotides (ScO) against N-SMase (A) and A-SMase (FIG. 2B). After 48 h, neurons were analyzed for protein expression of N-SMase and A-SMase. In FIG. 2C, primary human astrocytes seeded in inserts were stimulated by the combination of Aβ and IL-1β as described above. […] After 6 h of treatment with activated astrocytes, apoptotic events in neurons were detected by TUNEL. In FIG. 2D, TUNEL-positive cells were counted manually in four different images of each of three coverslips by three individuals blinded to the experiment. In FIG. 2E, after 18 h of stimulation, cell viability was examined by the metabolism of MTT and the release of LDH. […] Values obtained from the control group served as 100%, and data obtained in other groups were calculated as percent of control accordingly. […]
In FIGS. 3A-3E, primary human astrocytes seeded in inserts were stimulated by the combination of Aβ and IL-Iβ as described above. […] In FIG. 3A, after 1 h, activity of N-SMase was measured in total cell extracts of neurons as described above. […] Values obtained from the control group served as 100%, and data obtained in other groups were calculated as percent of control accordingly. […] Primary human neurons were treated with 25 μM DETA-NONOate (a NO donor) and at different time points of treatment, activities of N-SMase (FIG. 3D) and A-SMase (FIG. 3E) were monitored. ^ap<0.001 vs control (0 h).

N-SMase = test: Western blot of N-SMase protein after antisense knockdown in primary human neurons; conditions: 48 h with oligonucleotide
Procedure: Because these ASOs have become a very critical part of our study, the efficacy of N-SMase and A-SMase ASOs in inhibiting the protein expression of N-SMase and A-SMase was checked by western blot. […] Next, the effect of antisense knockdown of neuronal N-SMase and/or A-SMase on activated glia-induced neuronal apoptosis by TUNEL was investigated. […] As evidenced by a decrease In MTT metabolism, activated astroglia reduced neuronal viability (FIG. 2E).
Primary human neurons were incubated with antisense (ASO) and scrambled oligonucleotides (ScO) against N-SMase (A) and A-SMase (FIG. 2B). After 48 h, neurons were analyzed for protein expression of N-SMase and A-SMase. In FIG. 2C, primary human astrocytes seeded in inserts were stimulated by the combination of Aβ and IL-1β as described above. […] After 6 h of treatment with activated astrocytes, apoptotic events in neurons were detected by TUNEL. In FIG. 2D, TUNEL-positive cells were counted manually in four different images of each of three coverslips by three individuals blinded to the experiment. In FIG. 2E, after 18 h of stimulation, cell viability was examined by the metabolism of MTT and the release of LDH. […] Cell viability was checked by MTT (FIG. 2F) and LDH (FIG. 2G). Values obtained from the control group served as 100%, and data obtained in other groups were calculated as percent of control accordingly. […]

iNOS = iNOS mRNA expression (RT-PCR, real-time PCR) in activated primary human astrocytes; conditions: oligonucleotide 40 h, then 6 h of stimulation
Procedure: Total RNA was isolated from human primary astrocytes using RNA-Easy Qiagen kit following manufactures protocol. To remove any contaminating genomic DNA, total RNA was digested with DNase. Semi-quantitative RT-PCR was carried out as described earlier using oligo (dT) 12-18 as primer and MMLV reverse transcriptase (Clontech) in a 20-μl reaction mixture. The resulting cDNA was appropriately diluted, and diluted cDNA was amplified using Titanium Taq polymerase and the following primers for human proinflammatory genes: […]
It was performed using the ABI-Prism7700 sequence detection system (Applied Biosystems, Foster City, Calif.) using TaqMan Universal Master Mix and optimized concentrations of FAM-labeled probe, forward and reverse primers (Applied Biosystems) as described earlier. […] Data were processed by the ABI Sequence Detection System 1.6 software and analyzed by ANOVA.
Cells pretreated with ASO and ScO against N-SMase and A-SMase for 40 h were stimulated with (Aβ+IL-1β) under serum-free condition. After 24 h of stimulation, the concentration of nitrite was measured in supernatants (FIG. 4A) by Griess reagent. […] After 6 h, the expression of iNOS mRNA was analyzed by both semi-quantitative RT-PCR (C) and quantitative real-time PCR (FIG. 4D). The expression of TNF-a, IL-6 and IL-Iβ mRNAs were analyzed by semi-quantitative RT-PCR (FIG. 4E). […]

Substance: 5′- CAGCGAGCCCGTCCACCAGCC -3′ (DNA, all phosphorothioate, methylation of C not given here) [ASO against N-SMase, ID; NO.: 12]
- (Aβ+IL-1β)-induced production of NO (primary human astroglia): markedly abrogated
- LDH release from neurons (primary human neurons): significant reduction
- level of N-SMase protein (N-SMase): effectively inhibited
- (Aβ+IL-1β)-induced expression of iNOS mRNA (iNOS): strongly inhibited
